Results from patent US10253274B2, “Compounds and methods for inhibiting corrosion in hydrocarbon processing units” (General Electric Company, priority 2012, dated 2019).
Where two headings read alike, the source gives them in different places.

What was measured:
[1] = pKa of the amine; assay type: physicochemical
Source text: Another factor indicative of the overall efficiency of a given amine is the logarithm of the acid dissociation constant, pKa. Generally, amines with higher pKa values are more efficient neutralizers. Accordingly, in another embodiment, the treatment composition may comprise an amine with a pKa equal to or greater than about 5.0.

[2] = Neutralization efficiency by two-phase titration (pH at amine titrant concentration); assay type: physicochemical; settings: 100° C.; for Neutral. Efficiency pH at 250 ppm: 250 ppm amine titrant; for Neutral. Efficiency pH at 500 ppm: 500 ppm amine titrant; for Neutral. Efficiency pH at 1000 ppm: 1000 ppm amine titrant
Protocol: Several amines were tested to determine their efficiencies in neutralizing acidic species and reducing deposits of hydrochloride and amine salts. The neutralization efficiency of these amines was tested using two-phase titration. For each amine tested, a titrand (100 ml) was placed in a flask. The titrand was designed to simulate an initial condensate and comprised 90 vol % naphtha and 10 vol % acidic water. The titrand was heated to 100° C. and maintained at that temperature while amine titrant was added to the flask.
A second set of tests were performed using some of the effective amines above. Additional tertiary amines were also tested and found to be effective. The additional tertiary amines were N-methyl piperidine, 2-dimethylamino 2-methyl 1-propanol (“DMAMP”) in an azeotropic solution comprising 80 wt % amine, N,N,N′,N′-tetramethyldiamino methane (“TMMD”), dimethyl tertiary butanolamine (“DMTBA”), and dimethyl methoxypropylamine (“DMMOPA”). The neutralization efficiency of these amines was tested using two-phase titration. For each amine tested, a titrand (100 ml) was placed in a flask. The titrand was designed to simulate an initial condensate and comprised 90 vol % naphtha and 10 vol % acidic water. The titrand was heated to 100° C. and maintained at that temperature while amine titrant was added to the flask. The tests were repeated 3 times in the second set of tests. The data in Table 2 are the averages of the 3 repeated tests.

[3] = Amine-HCl salt precipitation potential index (Salt PPI) relative to ammonia salt; assay type: physicochemical
Source text: Without limiting this specification to any particular theory of operation, the overall efficiency of a given amine may be predicted upon assessment of several factors. One such factor is the amine-HCl salt precipitation potential index (“Salt PPI”). The Salt PPI may also be known by those in the art as the salt volatility index. These indices are merely a comparison of the precipitation potential of the amine salt to the salt of a typical neutralizing compound used in hydrocarbon refining, ammonia.
Salt PPI may be calculated from the equation: […]
If one were to substitute the vapor pressure of ammonia for the vapor pressure of the amine in the equation, the Salt PPI would be 1.0. Effective amines are those that are as good, if not better than the typical additive, ammonia. Thus, effective amines would have a Salt PPI of equal to or less than 1.0. Other neutralizers commonly used in hydrocarbon refining are trimethylamine and N-methylmorpholine.

[4] = Boiling point; settings: Table 2
[5] = Solubility Oil/Water
[6] = Table 1, average over 225 to 300° F., ammonia benchmark = 1.0
[7] = Table 2, second set, averages of 3 repeated tests
[8] = Table 2, average over 225 to 300° F., ammonia benchmark = 1.0
[9] = Table 3, exemplary treatment composition
[10] = Table 4, exemplary treatment composition

| SMILES | pKa ([1]; Table 1) | Neutral. Efficiency pH at 250 ppm ([2]; Table 1, first set of tests) | Neutral. Efficiency pH at 500 ppm ([2]; Table 1, first set of tests) | Neutral. Efficiency pH at 1000 ppm ([2]; Table 1, first set of tests) | Salt PPI [3, 6] | Boiling Point [4] [°C] | Solubility Oil/Water ([5]; Table 1) | Solubility Oil/Water ([5]; Table 2) | pKa ([1]; Table 1, read-out: pKa) | pKa ([1]; Table 2) | Neutral. Efficiency pH at 250 ppm [2, 7] | Neutral. Efficiency pH at 500 ppm [2, 7] | Neutral. Efficiency pH at 1000 ppm [2, 7] | Salt PPI [3, 8] | Solubility Oil/Water [5, 9] | Solubility Oil/Water [5, 10] | pKa ([1]; Table 2, read-out: pKa) | Salt PPI ([3]; ammonia salt is the benchmark) |
| --- | --- | --- | --- | --- | --- | --- | --- | --- | --- | --- | --- | --- | --- | --- | --- | --- | --- | --- |
| CCCNCCC [di-N-propyl amine, di-N-propylamine] | 10.91 | 2.2 | 3.0 | 7.6 | 0.24 |  |  |  |  |  |  |  |  |  |  |  |  |  |
| CN(C)CCN(C)C [N,N,N′,N′-tetramethylethylenediamine] |  | 4.7 | 6.7 | 8.3 | 0.27 | 122 | Water | Water | 8.97 | 8.97 | 4.7 | 6.7 | 8.3 | 0.48 |  |  |  |  |
| CN1CCCC1 [N-methylpyrrolidine] |  | 2.2 | 6.8 | 8.1 | <0.1 | 81 | Water | Water | 10.3 |  | 2.2 | 6.8 | 8.1 | 0.10 | Water | Water |  |  |
| CN(C)C(C)(C)CO [2-dimethylamino 2-methyl 1-propanol] |  |  |  |  |  |  |  |  |  |  |  |  |  |  |  |  | 10.2 |  |
| N [ammonia, reference compound] |  |  |  |  |  |  |  |  |  |  |  |  |  |  |  |  |  | 1.0 |
| CCCCN(C)CCCC [N-methyldibutylamine] |  | 1.9 | 2.0 | 5.0 | <0.1 |  |  |  | 10.3 |  |  |  |  |  |  |  |  |  |
| CN(C)C [Trimethylamine (TMA), Trimethylamine, reference compound] |  | 2.6 | 8.0 | 8.8 | 0.10 | 2.87 | Water | Water | 9.76 | 9.76 | 2.6 | 8.0 | 8.8 | 0.10 |  |  |  |  |
| C#CCN(CC)CC [Diethylpropargylamine, diethylpropargylamine] |  | 2.2 | 3.6 | 5.9 | 0.12 |  |  |  | 7.7 |  |  |  |  |  |  |  |  |  |
| CC(C)C(C)N (stereo not shown) [1,2 Dimethyl propyl amine, 1,2 dimethylpropylamine] |  | 1.4 | 8.5 | 9.6 | <0.1 | 87 | Water | Water | 9.9 |  | 1.4 | 8.5 | 9.6 | 0.30 |  |  |  |  |
| COCCCN(C)C [Dimethyl methoxypropyl-amine (DMMOPA), dimethyl methoxypropylamine] |  |  |  |  |  | 124 |  | Water |  |  |  |  |  | 0.20 |  |  |  |  |
| CCN(O)CC [Diethylhydroxylamine] |  | 2.4 | 4.1 | 5.0 | <0.1 |  | Water |  | 5.61 |  |  |  |  |  |  |  |  |  |
| CN(C)C(C)(C)CO [Dimethyl tertiarybutanolamine (DMTBA), dimethyl tertiary butanolamine] |  |  |  |  |  | 150 |  | Water |  | 8.9 |  |  |  | 0.32 |  |  |  |  |
| CN1CCCCC1 [N-methyl piperidine] |  |  |  |  |  | 107 |  | Water |  |  | 2.1 | 7.5 | 8.1 | 0.24 |  |  | 10.1 |  |
| CCCN(C)CCC [N-methyldipropylamine] |  | 2.4 | 2.8 | 5.6 | <0.1 |  |  |  | 10.1 |  |  |  |  |  |  |  |  |  |
| CN(C)CN(C)C [N,N,N′,N′-tetramethyldiaminomethane] |  |  |  |  |  |  |  |  |  |  | 7.54 | 8.87 | 9.25 | 0.30 |  |  |  |  |
| CN(C)C(C)(C)CO [2-Dimethylamino 2-methyl 2-propanol (DMAMP) 80% azeotrope so] [2-dimethylamino 2-methyl 1-propanol] |  |  |  |  |  | 98 |  | Water |  |  | 2.3 | 6.3 | 9.5 | 0.27 |  |  |  |  |
| CN1CCOCC1 [N-methylmorpholine (NMM), N-methylmorpholine, reference compound] |  | 2.4 | 5.4 | 6.8 | 0.18 | 116 |  |  | 7.1 |  | 2.4 | 5.4 | 6.8 | 0.18 |  |  |  |  |
| NCc1ccco1 [Furfurylamine, furfurylamine] |  | 2.6 | 6.5 | 8.5 | 0.38 |  | Water |  | 8.89 |  |  |  |  |  |  |  |  |  |
| CN(C)C1CCCCC1 [Dimethylcyclohexylamine, dimethylcyclohexylamine] |  | 1.8 | 1.9 | 5.2 | 0.10 |  |  |  | 10 |  |  |  |  |  |  |  |  |  |
| CN1CCN(C)CC1 [1,4-dimethylpiperazine] |  | 3.7 | 5.5 | 7.6 | <0.1 | 132 | Water | Water | 8.2 |  | 3.7 | 5.5 | 7.6 | 0.18 | Water | Water |  |  |
